# Laboratory results published in patent US10808007B2, “Desacetoxytubulysin H and analogs thereof” (WILLIAM MARSH RICE UNIVERSITY, priority 2015, dated 2020).
# Where two headings read alike, the source gives them in different places.
# Key:
# Format in all cases: cell-based
# [1] = tested on: MES SA (uterine sarcoma cells); assay: Cytotoxic assay (CellTiter-Glo, 72 h), MES SA
# [2] = tested on: HEK 293T (human embryonic kidney cells); assay: Cytotoxic assay (CellTiter-Glo, 72 h), HEK 293T
# [3] = tested on: MES SA DX (multidrug resistant uterine sarcoma cells); assay: Cytotoxic assay (CellTiter-Glo, 72 h), MES SA DX; conditions: Homo sapiens
# [4] = Homo sapiens, MES-SA, 72 h, read-out: IC50 MES SA
# [5] = Homo sapiens, HEK-293T, 72 h, read-out: IC50 HEK 293T
# [6] = Homo sapiens, MES-SA, read-out: MES SA IC50 (nM)
# [7] = Homo sapiens, HEK-293T, read-out: HEK 293T IC50 (nM)
compound,measurement,setting,value
"COC(=O)[C@@H](C)C[C@H](Cc1ccccc1)NC(=O)c1csc([C@@H](C[C@H](C(C)C)N(C)C(=O)[C@@H](NC(=O)[C@H]2CCCCN2C)c2ccc(F)cc2)OC(C)=O)n1 [Tb29, (2S,4R)-Methyl 4-(2-((1R,3R)-1-acetoxy-3-((S)-2-(4-fluorophenyl)-N-methyl-2-((R)-1-methylpiperidine-2-carboxamido)acetamido)-4-methylpentyl)thiazole-4-carboxamido)-2-methyl-5-phenylpentan oate]",IC50,[1]; [4],2.61 nM
same,IC50,[2]; [5],2.24 nM
same,IC50,[3],500 nM
"COC(=O)[C@@H](C)C[C@H](Cc1ccc(F)cc1)NC(=O)c1csc([C@@H](C[C@H](C(C)C)N(C)C(=O)[C@@H](NC(=O)[C@H]2CCCCN2C)C(C)C)OC(C)=O)n1 [Tb40, Methyl(2S,4R)-4-(2-((1R,3R)-1-acetoxy-3-((S)—N,3-dimethyl-2-((R)-1-methylpiperidine-2-carboxamido)butanamido)-4-methylpentyl)thiazole-4-carboxamido)-5-(4-fluorophenyl)-2-methylpentanoate]",IC50,[1]; [4],15.6 nM
same,IC50,[2]; [5],> 1000 nM
same,IC50,[3],> 1000 nM
"CC[C@H](C)[C@H](NC(=O)[C@H]1CCCCN1C)C(=O)N(C)[C@H](CCc1nc(C(=O)N[C@@H](Cc2ccccc2)C[C@H](C)C(=O)OC)cs1)C(C)C [PTb-D42, Methyl(2S,4R)-4-(2-((R)-3-((2S,3S)—N,3-dimethyl-2-((R)-1-methylpiperidine-2-carboxamido)pentanamido)-4-methylpentyl)thiazole-4-carboxamido)-2-methyl-5-phenylpentanoate]",IC50,[1]; [4],> 1000 nM
same,IC50,[2]; [5],> 1000 nM
same,IC50,[3],> 1000 nM
"COC(=O)[C@@H](C)C[C@H](Cc1ccccc1)NC(=O)c1csc([C@@H](C[C@H](C(C)C)N(C)C(=O)[C@@H](NC(=O)[C@H]2CCCN2C)C2CC2)OC(C)=O)n1 [Tb26, (2S,4R)-Methyl 4-(2-((1R,3R)-1-acetoxy-3-((S)-2-cyclopropyl-N-methyl-2-((R)-1-methylpyrrolidine-2-carboxamido)acetamido)-4-methylpentyl)thiazole-4-carboxamido)-2methyl-5-phenylpentanoate]",IC50,[1]; [4],0.2 nM
same,IC50,"[1]; Homo sapiens, MES-SA, read-out: IC50 MES SA",0.2 nM
same,IC50,[2]; [5],0.12 nM
same,IC50,"[2]; Homo sapiens, HEK-293T, read-out: IC50 HEK 293T",0.12 nM
same,IC50,[3],> 100 nM
"COC(=O)[C@@H](C)C[C@H](Cc1ccccc1)NC(=O)c1csc(CC[C@H](C(C)C)N(C)C(=O)[C@@H](NC(=O)[C@H]2CCCCN2C)C(C)C)n1 [PTb-D50, Methyl(2S,4R)-4-(2-((R)-3-((S)—N,3-dimethyl-2-((R)-1-methylpiperidine-2-carboxamido)butanamido)-4-methylpentyl)thiazole-4-carboxamido)-2-methyl-5-phenylpentanoate]",IC50,[1]; [6],> 100 nM
same,IC50,[2]; [7],> 100 nM
"CC[C@H](C)[C@H](NC(=O)[C@H]1CCCCN1C)C(=O)N(C)[C@H](CCc1nc(C(=O)N[C@@H](Cc2ccccc2)C[C@H](C)C(=O)O)cs1)C(C)C [PTb-D43, pretubulysin D, reference compound]",IC50,[1]; [4],409 nM
same,IC50,[2]; [5],109 nM
same,IC50,[3],> 1000 nM
"CC[C@H](C)[C@H](NC(=O)c1ncccn1)C(=O)N(C)[C@H](C[C@@H](OC(C)=O)c1nc(C(=O)N[C@@H](Cc2ccccc2)C[C@H](C)C(=O)OC)cs1)C(C)C [Tb34, (2S,4R)-methyl 4-(2-((1R,3R)-1-acetoxy-3-((2S,3S)—N,3-dimethyl-2-(pyrimidine-2-carboxamido)pentanamido)-4-methylpentyl)thiazole-4-carboxamido)-2-methyl-5-phenylpentanoate]",IC50,[1]; [4],> 1000 nM
same,IC50,[2]; [5],> 500 nM
same,IC50,[3],> 1000 nM
"CCCCN1CCCC[C@@H]1C(=O)N[C@H](C(=O)N(C)[C@H](C[C@@H](OC(C)=O)c1nc(C(=O)N[C@H]2CC[C@H](C(=O)OC)CC2)cs1)C(C)C)C(C)C [Tb-60, Methyl (1R,4r)-4-(2-((1R,3R)-1-acetoxy-3-((S)-2-((R)-1-butylpiperidine-2-carboxamido)-N,3-dimethylbutanamido)-4-methylpentyl)thiazole-4-carboxamido)cyclohexane-1-carboxylate]",IC50,[1]; [6],> 100 nM
same,IC50,[2]; [7],> 100 nM
CCCCN1CCCC[C@@H]1C(=O)N[C@H](C(=O)N(C)[C@H](C[C@@H](OC(C)=O)c1nc(C(=O)N[C@H]2CC[C@H](C(=O)O)CC2)cs1)C(C)C)C(C)C [Tb-61],IC50,[1]; [6],> 100 nM
same,IC50,[2]; [7],> 100 nM
"COC(=O)C12CC(NC(=O)c3csc([C@@H](C[C@H](C(C)C)N(C)C(=O)[C@@H](NC(=O)[C@H]4CCCCN4C)C(C)C)OC(C)=O)n3)(C1)C2 [Tb-55, Methyl 3-(2-((1R,3R)-1-acetoxy-3-((S)—N,3-dimethyl-2-((R)-1-methylpiperidine-2-carboxamido)butanamido)-4-methylpentyl)thiazole-4-carboxamido)bicyclo[1.1.1]pentane-1-carboxylate]",IC50,[1]; [6],0.93 nM
same,IC50,[2]; [7],0.35 nM
"COC(=O)[C@H]1CC[C@H](NC(=O)c2csc([C@@H](C[C@H](C(C)C)N(C)C(=O)[C@@H](NC(=O)[C@H]3CCCCN3C)C(C)C)OC(C)=O)n2)CC1 [Tb-58, Methyl (1R,4r)-4-(2-((1R,3R)-1-acetoxy-3-((S)—N,3-dimethyl-2-((R)-1-methylpiperidine-2-carboxamido)butanamido)-4-methylpentyl)thiazole-4-carboxamido)cyclohexane-1-carboxylate]",IC50,[1]; [6],6.16 nM
same,IC50,[2]; [7],3.83 nM
"COC(=O)[C@@H](C)C[C@H](Cc1ccc(F)cc1)NC(=O)c1csc([C@@H](C[C@H](C(C)C)N(C)C(=O)[C@@H](NC(=O)[C@H]2CCCCN2C)C2CC2)OC(C)=O)n1 [Tb-57, Methyl (2S,4R)-4-(2-((1R,3R)-1-acetoxy-3-((S)-2-cyclopropyl-N-methyl-2-((R)-1-methylpiperidine-2-carboxamido)acetamido)-4-methylpentyl)thiazole-4-carboxamido)-5-(4-fluorophenyl)-2-methylpentanoate]",IC50,[1]; [6],~89.3 nM
same,IC50,[2]; [7],~105 nM
"COC(=O)[C@@H](C)C[C@H](Cc1ccccc1)NC(=O)c1csc([C@@H](C[C@H](C(C)C)N(C)C(=O)C2(NC(=O)[C@H]3CCCCN3C)CCCC2)OC(C)=O)n1 [Tb-52, Methyl (2S,4R)-4-(2-((1R,3R)-1-acetoxy-4-methyl-3-(N-methyl-1-((R)-1-methylpiperidine-2-carboxa-mido)cyclopentane-1-carboxamido)pentyl)thiazole-4-carboxamido)-2-methyl-5-phenylpentanoate]",IC50,[1]; [6],7.18 nM
same,IC50,[2]; [7],5.78 nM
"CCCCN1CCCC[C@@H]1C(=O)N[C@H](C(=O)N(C)[C@H](CCc1nc(C(=O)N[C@@H](Cc2ccccc2)C[C@H](C)C(=O)OC)cs1)C(C)C)[C@@H](C)CC [PTb-D49, Methyl(2S,4R)-4-(2-((R)-3-((2S,3S)-2-((R)-1-butylpiperidine-2-carboxamido)-N,3-dimethylpentanamido)-4-methylpentyl)thiazole-4-carboxamido)-2-methyl-5-phenylpentanoate]",IC50,[1]; [6],> 100 nM
same,IC50,[2]; [7],> 100 nM
"COC(=O)CC12CC(NC(=O)c3csc([C@@H](C[C@H](C(C)C)N(C)C(=O)[C@@H](NC(=O)[C@H]4CCCCN4C)C(C)C)OC(C)=O)n3)(C1)C2 [Tb-56, Methyl 2-(3-(2-((1R,3R)-1-acetoxy-3-((S)—N,3-dimethyl-2-((R)-1-methylpiperidine-2-carboxamido)butanamido)-4-methylpentyl)thiazole-4-carboxamido)bicyclo[1.1.1]pentan-1-yl)]",IC50,[1]; [6],~2.73 nM
same,IC50,[2]; [7],1.79 nM
CC[C@H](C)[C@H](NC(=O)[C@H]1CCCCN1C)C(=O)N(C)[C@H](C[C@@H](OC(C)=O)c1nc(C(=O)NC23C4C5C2C2C3C4C52C(=O)OC)cs1)C(C)C (stereo partly drawn) [Tb1l],IC50,"[1]; MES SA, read-out: IC50 MES SA",0.84 nM
same,IC50,"[2]; HEK 293T, read-out: IC50 HEK 293T",0.26 nM
"CC[C@H](C)[C@H](NC(=O)[C@H]1CCCCN1C)C(=O)N[C@H](C[C@@H](OC(C)=O)c1nc(C(=O)N[C@@H](Cc2ccccc2)C[C@H](C)C(=O)O)cs1)C(C)C [Tb-54, (2S,4R)-4-(2-((1R,3R)-1-Acetoxy-4-methyl-3-((2S,3S)-3-methyl-2-((R)-1-methylpiperidine-2-carboxamido)pentanamido)pentyl)thiazole-4-carboxamido)-2-methyl-5-phenylpentanoic Acid]",IC50,"[1]; Homo sapiens, MES SA, Table 3, read-out: MES SA IC50",6.21 nM
same,IC50,"[2]; Homo sapiens, HEK 293T, Table 3, read-out: HEK 293T IC50",0.73 nM
"CC[C@H](C)[C@H](NC(=O)[C@H]1CCCCN1C)C(=O)N[C@H](C[C@@H](OC(C)=O)c1nc(C(=O)N[C@@H](Cc2ccccc2)C[C@H](C)C(=O)OC)cs1)C(C)C [Tb-53, (2S,4R)-Methyl 4-(2-((1R,3R)-1-acetoxy-4-methyl-3-((2S,3S)-3-methyl-2-((R)-1-methylpiperidine-2-carboxamido)pentanamido)pentyl)thiazole-4-carboxamido)-2-methyl-5-phenyl pentanoate]",IC50,[1]; [6],0.92 nM
same,IC50,[2]; [7],0.56 nM
"CC(=O)O[C@H](C[C@H](C(C)C)N(C)C(=O)[C@@H](NC(=O)[C@H]1CCCCN1C)C(C)C)c1nc(C(=O)N[C@H]2CC[C@H](C(=O)O)CC2)cs1 [Tb-59, (1R,4r)-4-(2-((1R,3R)-1-Acetoxy-3-((S)—N,3-dimethyl-2-((R)-1-methylpiperidine-2-carboxamido)butanamido)-4-methylpentyl)thiazole-4-carboxamido)cyclohexane-1-carboxylic Acid]",IC50,[1]; [6],> 100 nM
same,IC50,[2]; [7],> 100 nM
"CCCCN1CCCC[C@@H]1C(=O)N[C@H](C(=O)N(C)[C@H](CCc1nc(C(=O)N[C@@H](Cc2ccccc2)C[C@H](C)C(=O)OC)cs1)C(C)C)C(C)C [PTb-D51, Methyl(2S,4R)-4-(2-((R)-3-((S)-2-((R)-1-butylpiperidine-2-carboxamido)-N,3-dimethylbutanamido)-4-methylpentyl)thiazole-4-carboxamido)-2-methyl-5-phenylpentanoate]",IC50,[1]; [6],> 100 nM
same,IC50,[2]; [7],> 100 nM
